Data as given in US20260374766A1, “METHODS FOR TREATING CANCER” (Antares Therapeutics, Inc., priority 2022, published 2026).
pIC50, pKd: −log10 of the molar value. Where two headings read alike, the source gives them in different places.

What was measured:
p53 Y220C = p53 Y220C (Homo sapiens, UniProt P04637, Y220C); assay: Luciferase Reporter Assay (Luc), p53 response element, NClH1299 cells with inducible p53 Y220C; format: cell-based; details: luciferase reporter, NClH1299 inducible p53 Y220C, 6 hour; for AC50: read-out: Luc P53 Y220C AC50
Procedure, shortened: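 24 h dox pre-induction (0.5 ug/mL), then 6 h compound; One-Glo luminescent read.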

[1] = target: T1, p53 Y220C mutant protein (amino acid residues 94-293) (Homo sapiens, UniProt P04637, Y220C); assay: Surface Plasmon Resonance (SPR) assay, Kd_kinetic; format: binding; details: SPR, p53 Y220C, read-out: SPR P53 Y220C KD kinetic
T1 construct: p53 Y220C mutant protein (amino acid residues 94-293)
Procedure, shortened: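 Surface plasmon resonance is run at 16 or 20 °C in 50 mM Tris pH 7.5 containing 100 mM NaCl, 1 mM DTT, 0.01% Brij35, 0.05% Tween-20 and 1% DMSO. Association and dissociation data are fitted to a 1:1 model.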

[2] = target: T1, p53 Y220C mutant protein (amino acid residues 94-293); assay: Thermal Shift Assay (TSA), dTM; format: binding; details: for ΔTm at 10 µM: 10 uM compound; for ΔTm at 100 µM: 100 uM compound, read-out: TSA P53 Y220C dTM (100 uM)
Method: Thermal Shift Assay (TSA) Protocol
5 μM recombinant p53 Y220C mutant protein (amino acid residues 94-293) was incubated with 10 μM or 100 μM compound for 3 hours at 20 °C in buffer containing 20 mM HEPES, pH7.4, 100 mM NaCl, 0.01% Pluronic F-127, and 1% DMSO in the presence of 400-fold diluted Sypro Orange (ThermoFisher Scientific catalog number 4461146), on a 384-well PCR plate (Applied Biosystems catalog number 4483285). The volume was 5 μL/well. The sealed plate was then loaded onto a QuantStudio 7 Flex instrument for melting temperature (TM) measurement. The temperature was increased from 30 °C to […], at a rate of 0.03 °C/second. Data were fit into a Boltzmann two-state model to determine the TM.

H1299 p53 Y220C = assay: Cell Proliferation Assay (CellTiter-Glo, CTG), H1299 p53 Y220C (NClH1299-inducible p53 Y220C); format: cell-based; details: Homo sapiens, NCI-H1299, 120 h, 5 days, CellTiter-Glo
Procedure, shortened: (§1)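 Cells seeded at 250-500 per well and exposed to compound for 5 days. Viability read by CellTiter-Glo luminescence after 10 min at room temperature; IC50 calculated. H1299 lines carry Tet-One inducible p53 mutant constructs introduced by lentiviral transduction.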

NUGC3 p53 Y220C = assay: Cell Proliferation Assay (CellTiter-Glo, CTG), NUGC3 p53 Y220C; format: cell-based; details: Homo sapiens, NUGC-3, 120 h, 5 days, CellTiter-Glo
Procedure, shortened: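 Tet-One inducible p53 Y220C or R273H constructs were stably introduced into NCI-H1299 by lentiviral transduction; NUGC3 was used as is. Cells (250-500 per well) were exposed to compound for 5 days, then CellTiter-Glo was added for 10 min at room temperature and IC50 was calculated from luminescence.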

H1299 p53 R273H = assay: Cell Proliferation Assay (CellTiter-Glo, CTG), H1299 p53 R273H (NClH1299-inducible p53 R273H); format: cell-based; details: Homo sapiens, NCI-H1299, 120 h, 5 days, CellTiter-Glo
Procedure, shortened: as §1

[3] = 10 uM tool compound as positive control
[4] = thermal shift, read-out: TSA P53 Y220C dTM (10 uM)

| SMILES | AC50 (p53 Y220C; AC50) [nM] | Emax (p53 Y220C; Emax) [%] | pKd [1] | ΔTm at 10 µM ([2]; p53 Y220C, read-out: TSA P53 Y220C dTM) [°C] | pIC50 (H1299 p53 Y220C; NClH1299-inducible p53 Y220C cells) | pIC50 (H1299 p53 R273H; NClH1299-inducible p53 R273H cells) | Emax (p53 Y220C; [3]) [%] | AC50 (p53 Y220C) [nM] | pKd ([1]; kinetic KD) | ΔTm at 10 µM [2, 4] [°C] | ΔTm at 100 µM ([2]; thermal shift) [°C] | pIC50 (H1299 p53 Y220C; H1299 p53 Y220C) | pIC50 (H1299 p53 R273H; H1299 p53 R273H) | pIC50 (NUGC3 p53 Y220C; NUGC3 cells) | pIC50 (NUGC3 p53 Y220C; NUGC3 p53 Y220C) |
| --- | --- | --- | --- | --- | --- | --- | --- | --- | --- | --- | --- | --- | --- | --- | --- |
| COc1cc(S(C)(=O)=O)ccc1NCC#Cc1nc2c(N[C@@H]3CCN(C)C[C@@H]3F)cccn2c1CC(F)(F)F [Example 1, (3S,4R)-3-fluoro-N-(2-{3-[(4-methanesulfonyl-2-methoxyphenyl)amino]prop-1-yn-1-yl}-3-(2,2,2-trifluoroethyl)imidazo[1,2-a]pyridin-8-yl)-1-methylpiperidin-4-amine] |  |  |  |  |  |  | 70 to 80 | 750 to 1500 | > 8.00 |  | ≥ 10 | > 6.12 | 5.00 to 5.10 |  | 5.82 to 6.12 |
| COc1cc(S(C)(=O)=O)ccc1NCC#Cc1nc2c(NC3CCN(C)CC3)cccn2c1CC(F)(F)F [Example 2, N-(2-{3-[(4-methanesulfonyl-2-methoxyphenyl)amino]prop-1-yn-1-yl}-3-(2,2,2-trifluoroethyl)imidazo[1,2-a]pyridin-8-yl)-1-methylpiperidin-4-amine] |  |  |  |  |  |  | < 70 | > 3000 | 7.00 to 8.00 |  | ≥ 10 | 5.52 to 5.82 | 5.10 to 5.30 |  | 5.52 to 5.82 |
| COc1cc(S(C)(=O)=O)ccc1NCC#Cc1nc2c(NC3CCOCC3)cccn2c1CC(F)(F)F [Example 3, 2-{3-[(4-methanesulfonyl-2-methoxyphenyl)amino]prop-1-yn-1-yl}-N-(oxan-4-yl)-3-(2,2,2-trifluoroethyl)imidazo[1,2-a]pyridin-8-amine] |  |  |  |  |  |  | 70 to 80 | 1500 to 3000 | 7.00 to 8.00 |  | ≥ 10 | 5.52 to 5.82 | ≤ 5.00 |  | < 5.52 |
| COc1cc(S(C)(=O)=O)ccc1NCC#Cc1nc2c(NC3CCS(=O)(=O)CC3)cccn2c1CC(F)(F)F [Example 4, 4-[(2-{3-[(4-methanesulfonyl-2-methoxyphenyl)amino]prop-1-yn-1-yl}-3-(2,2,2-trifluoroethyl)imidazo[1,2-a]pyridin-8-yl)amino]-1lambda6-thiane-1,1-dione] |  |  |  |  |  |  | < 70 | > 3000 | 7.00 to 8.00 |  | 5 to 10 | < 5.52 | ≤ 5.00 |  | 5.52 to 5.82 |
| COc1cc(S(C)(=O)=O)ccc1NCC#Cc1nc2c(NC3CCN(CCS(C)(=O)=O)CC3)cccn2c1CC(F)(F)F [Example 5, N-(2-{3-[(4-methanesulfonyl-2-methoxyphenyl)amino]prop-1-yn-1-yl}-3-(2,2,2-trifluoroethyl)imidazo[1,2-a]pyridin-8-yl)-1-(2-methanesulfonylethyl) piperidin-4-amine] |  |  |  |  |  |  | 80 to 90 | > 3000 | 7.00 to 8.00 | 5 to 10 | 5 to 10 | < 5.52 | ≤ 5.00 |  | 5.52 to 5.82 |
| COc1cc(S(C)(=O)=O)ccc1NCC#Cc1nc2c(N[C@H]3CCN(C)C[C@H]3F)cccn2c1CC(F)(F)F [Example 6, (3R,4S)-3-fluoro-N-(2-{3-[(4-methanesulfonyl-2-methoxyphenyl)amino]prop-1-yn-1-yl}-3-(2,2,2-trifluoroethyl)imidazo[1,2-a]pyridin-8-yl)-1-methylpiperidin-4-amine] |  |  |  |  |  |  | 70 to 80 | 1500 to 3000 | 7.00 to 8.00 |  | ≥ 10 | 5.52 to 5.82 | ≤ 5.00 |  | 5.52 to 5.82 |
| COc1cc(S(C)(=O)=O)ccc1NCC#Cc1nc2c(NC3CCN(C4CC4)CC3)cccn2c1CC(F)(F)F [Example 7, 1-cyclopropyl-N-(2-{3-[(4-methanesulfonyl-2-methoxyphenyl)amino]prop-1-yn-1-yl}-3-(2,2,2-trifluoroethyl)imidazo[1,2-a]pyridin-8-yl)piperidin-4-amine] |  |  |  |  |  |  | < 70 | > 3000 | 7.00 to 8.00 |  | 5 to 10 | 5.52 to 5.82 | 5.10 to 5.30 |  | 5.52 to 5.82 |
| COc1cc(S(C)(=O)=O)ccc1NCC#Cc1nc2c(N[C@@H]3CCNC[C@@H]3F)cccn2c1CC(F)(F)F [Example 8, (3S,4R)-3-fluoro-N-(2-{3-[(4-methanesulfonyl-2-methoxyphenyl)amino]prop-1-yn-1-yl}-3-(2,2,2-trifluoroethyl)imidazo[1,2-a]pyridin-8-yl)piperidin-4-amine] |  |  |  |  |  |  | 70 to 80 | 750 to 1500 | > 8.00 |  | ≥ 10 | 5.82 to 6.12 | 5.10 to 5.30 |  | 5.82 to 6.12 |
| COc1cc(S(C)(=O)=O)ccc1NCC#Cc1nc2c(NC3CCN(C(C)C)CC3)cccn2c1CC(F)(F)F [Example 9, 1-isopropyl-N-(2-{3-[(4-methanesulfonyl-2-methoxyphenyl)amino]prop-1-yn-1-yl}-3-(2,2,2-trifluoroethyl)imidazo[1,2-a]pyridin-8-yl)piperidin-4-amine] |  |  |  |  |  |  | 70 to 80 | 1500 to 3000 | 7.00 to 8.00 |  | ≥ 10 | 5.52 to 5.82 | 5.10 to 5.30 |  | 5.52 to 5.82 |

Second part, led by results:

| AC50 (p53 Y220C; AC50) [nM] | Emax (p53 Y220C; Emax) [%] | pKd [1] | ΔTm at 10 µM ([2]; p53 Y220C, read-out: TSA P53 Y220C dTM) [°C] | pIC50 (H1299 p53 Y220C; NClH1299-inducible p53 Y220C cells) | pIC50 (H1299 p53 R273H; NClH1299-inducible p53 R273H cells) | Emax (p53 Y220C; [3]) [%] | AC50 (p53 Y220C) [nM] | pKd ([1]; kinetic KD) | ΔTm at 10 µM [2, 4] [°C] | ΔTm at 100 µM ([2]; thermal shift) [°C] | pIC50 (H1299 p53 Y220C; H1299 p53 Y220C) | pIC50 (H1299 p53 R273H; H1299 p53 R273H) | SMILES | pIC50 (NUGC3 p53 Y220C; NUGC3 cells) | pIC50 (NUGC3 p53 Y220C; NUGC3 p53 Y220C) |
| --- | --- | --- | --- | --- | --- | --- | --- | --- | --- | --- | --- | --- | --- | --- | --- |
| < 750 | > 90 | > 8.00 | ≥ 10 | > 6.12 | ≤ 5.00 |  |  |  |  |  |  |  | CNC(=O)c1ccc(OC[C@@H](C)O)c(NCC#Cc2cc3c(N[C@@H]4CCN(C)C[C@@H]4F)nccn3c2SC(F)(F)F)c1 (single isomer, unassigned) [Example 356] | > 6.12 |  |
|  |  |  |  |  |  | 70 to 80 | > 3000 | 7.00 to 8.00 | 5 to 10 | 5 to 10 | < 5.52 | ≤ 5.00 | CNC(=O)c1ccc(NCC#Cc2nc3c(N[C@H]4CCc5ncnn5C4)cccn3c2SC(F)(F)F)c(OC)c1 (stereo in doubt) [Example 189] |  | < 5.52 |
|  |  |  |  |  |  | > 90 | < 750 | > 8.00 | 5 to 10 | ≥ 10 | > 6.12 | ≤ 5.00 | CNC(=O)c1ccc(NCC#Cc2nc3c(N[C@@H]4CCc5ncnn5C4)cccn3c2SC(F)(F)F)c(OC)c1 (stereo in doubt) [Example 190] |  | > 6.12 |
|  |  |  |  |  |  | 70 to 80 | 1500 to 3000 | 7.00 to 8.00 |  | ≥ 10 | 5.82 to 6.12 | 5.10 to 5.30 | COc1cc(S(C)(=O)=O)ccc1NCC#Cc1nc2c(NC3CCN(CC(C)(C)O)CC3)cccn2c1CC(F)(F)F [Example 11, 1-{4-[(2-{3-[(4-methanesulfonyl-2-methoxyphenyl)amino]prop-1-yn-1-yl}-3-(2,2,2-trifluoroethyl)imidazo [1,2-a]pyridin-8-yl)amino]piperidin-1-yl}-2-methylpropan-2-ol] |  | 5.52 to 5.82 |
|  |  |  |  |  |  | 70 to 80 | 1500 to 3000 | 7.00 to 8.00 |  | ≥ 10 | 5.52 to 5.82 | ≤ 5.00 | COC[C@@H](O)CN1CCC(Nc2cccn3c(CC(F)(F)F)c(C#CCNc4ccc(S(C)(=O)=O)cc4OC)nc23)CC1 [Example 12, (2S)-1-{4-[(2-{3-[(4-methanesulfonyl-2-methoxyphenyl)amino]prop-1-yn-1-yl}-3-(2,2,2-trifluoroethyl)imidazo[1,2-a]pyridin-8-yl)amino]piperidin-1-yl}-3-methoxypropan-2-ol] |  | 5.82 to 6.12 |
